Target: T1, TLR8 (Homo sapiens, UniProt Q9NR97)
T1 sequence (Q9NR97 27-1041): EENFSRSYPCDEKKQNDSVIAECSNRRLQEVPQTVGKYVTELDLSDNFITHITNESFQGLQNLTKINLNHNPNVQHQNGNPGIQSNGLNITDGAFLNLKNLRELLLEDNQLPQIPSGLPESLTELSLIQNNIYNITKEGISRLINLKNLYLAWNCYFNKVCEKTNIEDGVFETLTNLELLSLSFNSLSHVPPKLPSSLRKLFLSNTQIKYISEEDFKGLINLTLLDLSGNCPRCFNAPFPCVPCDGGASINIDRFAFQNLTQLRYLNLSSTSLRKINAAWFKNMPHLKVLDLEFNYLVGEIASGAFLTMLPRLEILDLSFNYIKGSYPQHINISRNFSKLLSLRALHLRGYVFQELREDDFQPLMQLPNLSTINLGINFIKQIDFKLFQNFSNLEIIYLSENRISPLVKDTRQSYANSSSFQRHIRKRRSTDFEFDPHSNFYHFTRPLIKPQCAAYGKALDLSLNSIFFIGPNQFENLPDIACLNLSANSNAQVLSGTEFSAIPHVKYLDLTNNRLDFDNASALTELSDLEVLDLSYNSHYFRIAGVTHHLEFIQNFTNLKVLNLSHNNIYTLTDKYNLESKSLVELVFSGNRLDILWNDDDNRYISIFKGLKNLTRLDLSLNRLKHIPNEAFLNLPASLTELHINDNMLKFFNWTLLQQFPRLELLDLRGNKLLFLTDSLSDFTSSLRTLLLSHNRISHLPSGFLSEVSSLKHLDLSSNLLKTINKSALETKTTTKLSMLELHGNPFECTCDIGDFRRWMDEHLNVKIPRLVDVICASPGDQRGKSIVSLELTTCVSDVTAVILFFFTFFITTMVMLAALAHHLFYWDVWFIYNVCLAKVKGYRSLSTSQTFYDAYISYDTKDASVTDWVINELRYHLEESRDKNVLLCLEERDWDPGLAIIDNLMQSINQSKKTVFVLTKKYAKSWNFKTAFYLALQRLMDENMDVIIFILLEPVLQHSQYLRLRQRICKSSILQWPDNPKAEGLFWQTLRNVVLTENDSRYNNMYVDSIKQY
Test: huPBMC TLR8 Antagonist IL-6 TR-FRET Assay
Type: cell-based
Parameters: Fresh blood was collected from normal human donors; endogenous in cells; host or cells: human PBMCs from fresh donor blood
Conditions: human PBMCs stimulated with ssRNA40 1 μg/ml (DOTAP), 14-16 hrs; IL-6 TR-FRET read-out
Outline: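 Human PBMCs from fresh donor blood (150,000 cells/well) stimulated 14–16 h at 37 °C with DOTAP-complexed ssRNA40 (final 1 μg/ml for TLR8, 10 μg/mL for TLR7) or ODN2216 (final 0.3 μM, TLR9), 0.25% DMSO, ten-point 1/3 compound dilutions. Supernatant IL-6 read by HTRF (TLR8); IFNα by IFNα2b AlphaLISA (TLR7/TLR9).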

IC50 | Compound
55 nM | Cc1cc(N2CCc3c(c(C)nn3CC34CCC(N)(CC3)CC4)C2)c2ccncc2n1 [Compound No. 3, 4-((3-methyl-5-(2-methyl-1,7-naphthyridin-4-yl)-4,5,6,7-tetrahydro-1H-pyrazolo[4,3-c]pyridin-1-yl)methyl)bicyclo[2.2.2]octan-1-amine]
135 nM | Cc1cc(N2CCc3c(c(C)nn3CC34CCC(NC5COC5)(CC3)CC4)C2)c2cnn(C)c2n1 [Compound No. 6, N-(4-((5-(1,6-dimethyl-1H-pyrazolo[3,4-b]pyridin-4-yl)-3-methyl-4,5,6,7-tetrahydro-1H-pyrazolo[4,3-c]pyridin-1-yl)methyl)bicyclo[2.2.2]octan-1-yl)oxetan-3-amine]
201 nM | Cc1cc(N2CCc3c(c(C)nn3CC34CCC(NC(=O)[C@H]5COCCN5)(CC3)CC4)C2)c2cnn(C)c2n1 [Compound No. 9, (R)—N-(4-((5-(1,6-dimethyl-1H-pyrazolo[3,4-b]pyridin-4-yl)-3-methyl-4,5,6,7-tetrahydro-1H-pyrazolo[4,3-c]pyridin-1-yl)methyl)bicyclo[2.2.2]octan-1-yl)morpholine-3-carboxamide]
48 nM | Cc1nc(N2CCc3c(c(C)nn3CC34CCC(N5CC6(COC6)C5)(CC3)CC4)C2)c2c(n1)c(C)nn2C [Compound No. 10, 6-(4-((3-methyl-5-(1,3,5-trimethyl-1H-pyrazolo[4,3-d]pyrimidin-7-yl)-4,5,6,7-tetrahydro-1H-pyrazolo[4,3-c]pyridin-1-yl)methyl)bicyclo[2.2.2]octan-1-yl)-2-oxa-6-azaspiro[3.3]heptane]
289 nM | Cc1nc(N2CCc3c(c(C)nn3CC34CCC(N)(CC3)CC4)C2)c2c(n1)c(C)nn2C [Compound No. 26, 4-((3-methyl-5-(1,3,5-trimethyl-1H-pyrazolo[4,3-d]pyrimidin-7-yl)-4,5,6,7-tetrahydro-1H-pyrazolo[4,3-c]pyridin-1-yl)methyl)bicyclo[2.2.2]octan-1-amine]
51 nM | Cc1cc(N2CCc3c(c(C)nn3CC34CCC(N(C)C)(CC3)CC4)C2)c2cnn(C)c2n1 [Compound No. 43, 4-((5-(1,6-dimethyl-1H-pyrazolo[3,4-b]pyridin-4-yl)-3-methyl-4,5,6,7-tetrahydro-1H-pyrazolo[4,3-c]pyridin-1-yl)methyl)-N,N-dimethylbicyclo[2.2.2]octan-1-amine]
389 nM | Cc1cc(N2CCc3c(c(C)nn3CC34CCC(N5CCN(C)C(=O)C5)(CC3)CC4)C2)c2cnn(C)c2n1 [Compound No. 104, 4-(4-((5-(1,6-dimethyl-1H-pyrazolo[3,4-b]pyridin-4-yl)-3-methyl-4,5,6,7-tetrahydro-1H-pyrazolo[4,3-c]pyridin-1-yl)methyl)bicyclo[2.2.2]octan-1-yl)-1-methylpiperazin-2-one]
44 nM | Cc1cc(N2CCc3c(c(C)nn3CC34CCC(N5CCN(C)CC5=O)(CC3)CC4)C2)c2cnn(C)c2n1 [Compound No. 108, 1-(4-((5-(1,6-dimethyl-1H-pyrazolo[3,4-b]pyridin-4-yl)-3-methyl-4,5,6,7-tetrahydro-1H-pyrazolo[4,3-c]pyridin-1-yl)methyl)bicyclo[2.2.2]octan-1-yl)-4-methylpiperazin-2-one]
1180 nM | Cc1cc(N2CCc3c(c(C)nn3CC34CCC(n5ccnc5)(CC3)CC4)C2)c2cnn(C)c2n1 [Compound No. 119, 1-((4-(1H-imidazol-1-yl)bicyclo[2.2.2]octan-1-yl)methyl)-5-(1,6-dimethyl-1H-pyrazolo[3,4-b]pyridin-4-yl)-3-methyl-4,5,6,7-tetrahydro-1H-pyrazolo[4,3-c]pyridine]
806 nM | Cc1cc(N2CCc3c(c(C)nn3CC34CCC(NC(=O)CN5CC(F)C5)(CC3)CC4)C2)c2cnn(C)c2n1 [Compound No. 133, N-(4-((5-(1,6-dimethyl-1H-pyrazolo[3,4-b]pyridin-4-yl)-3-methyl-4,5,6,7-tetrahydro-1H-pyrazolo[4,3-c]pyridin-1-yl)methyl)bicyclo[2.2.2]octan-1-yl)-2-(3-fluoroazetidin-1-yl)acetamide]
8440 nM | Cc1cc(N2CCc3c(c(C)nn3CC34CCC(NC(=O)CO)(CC3)CC4)C2)c2cnn(C)c2n1 [Compound No. 135, N-(4-((5-(1,6-dimethyl-1H-pyrazolo[3,4-b]pyridin-4-yl)-3-methyl-4,5,6,7-tetrahydro-1H-pyrazolo[4,3-c]pyridin-1-yl)methyl)bicyclo[2.2.2]octan-1-yl)-2-hydroxyacetamide]
178 nM | Cc1cc(N2CCc3c(c(C)nn3CC34CCC(NC(=O)CN5CC(O)C5)(CC3)CC4)C2)c2cnn(C)c2n1 [Compound No. 136, N-(4-((5-(1,6-dimethyl-1H-pyrazolo[3,4-b]pyridin-4-yl)-3-methyl-4,5,6,7-tetrahydro-1H-pyrazolo[4,3-c]pyridin-1-yl)methyl)bicyclo[2.2.2]octan-1-yl)-2-(3-hydroxyazetidin-1-yl)acetamide]
331 nM | [2H]C([2H])([2H])n1ncc2c(N3CCc4c(c(C)nn4CC45CCC(N)(CC4)CC5)C3)cc(C)nc21 [Compound No. 140, 4-((3-methyl-5-(6-methyl-1-(methyl-d3)-1H-pyrazolo[3,4-b]pyridin-4-yl)-4,5,6,7-tetrahydro-1H-pyrazolo[4,3-c]pyridin-1-yl)methyl)bicyclo[2.2.2]octan-1-amine]
> 10000 nM | Cc1cc(N2CCc3c(c(C)nn3CC34CCC(NC(=O)OC(C)(C)C)(CC3)CC4)C2)c2ccncc2n1 [Compound No. 147, tert-butyl (4-((3-methyl-5-(2-methyl-1,7-naphthyridin-4-yl)-4,5,6,7-tetrahydro-1H-pyrazolo[4,3-c]pyridin-1-yl)methyl)bicyclo[2.2.2]octan-1-yl)carbamate]
1350 nM | Cc1nn(CC23CCC(N)(CC2)CC3)c2c1CN(c1nc(N)nc3c1cnn3C)CC2 [compound 13, 4-(1-((4-aminobicyclo[2.2.2]octan-1-yl)methyl)-3-methyl-6,7-dihydro-1H-pyrazolo[4,3-c]pyridin-5(4H)-yl)-1-methyl-1H-pyrazolo[3,4-d]pyrimidin-6-amine]
203 nM | Cc1nn(CC23CCC(N)(CC2)CC3)c2c1CN(c1nc(Cl)nc3cnn(C)c13)CC2 [compound 15, 4-((5-(5-chloro-1-methyl-1H-pyrazolo[4,3-d]pyrimidin-7-yl)-3-mehtyl-4,5,6,7-tetrahydro-1H-pyrazolo[4,3-c]pyridin-1-yl)methyl)bicyclo[2.2.2]octan-1-amine]
443 nM | Cc1nc(N2CCc3c(c(C)nn3CC34CCC(N5CCCC5)(CC3)CC4)C2)c2cnn(C)c2n1 [compound 16, 1,6-dimethyl-4-(3-methyl-1-((4-(pyrrolidin-1-yl)bicyclo[2.2.2]octan-1-yl)methyl)-6,7-dihydro-1H-pyrazolo[4,3-c]pyridin-5(4H)-yl)-1H-pyrazolo[3,4-d]pyrimidine]
199 nM | Cc1nc(N2CCc3c(c(C)nn3CC34CCC(N5CCCC5)(CC3)CC4)C2)c2c(n1)c(C)nn2C [compound 17, 1,3,5-trimethyl-7-(3-methyl-1-((4-(pyrrolidin-1-yl)bicyclo[2.2.2]octan-1-yl)methyl)-6,7-dihydro-1H-pyrazolo[4,3-c]pyridin-5(4H)-yl)-1H-pyrazolo[4,3-d]pyrimidine]
77 nM | COCCNC12CCC(Cn3nc(C)c4c3CCN(c3nc(C)nc5c(C)nn(C)c35)C4)(CC1)CC2 [compound 18, N-(2-methoxyethyl)-4-((3-methyl-5-(1,3,5-trimethyl-1H-pyrazolo[4,3-d]pyrimidin-7-yl)-4,5,6,7-tetrahydro-1H-pyrazolo[4,3-c]pyridin-1-yl)methyl)bicyclo[2.2.2]octan-1-amine]
186 nM | Cc1nc(N2CCc3c(c(C)nn3CC34CCC(N5CCOCC5)(CC3)CC4)C2)c2cnn(C)c2n1 [compound 19, 4-(4-((5-(1,6-dimethyl-1H-pyrazolo[3,4-d]pyrimidin-4-yl)-3-methyl-4,5,6,7-tetrahydro-1H-pyrazolo[4,3-c]pyridin-1-yl)methyl)bicyclo[2.2.2]octan-1-yl)morpholine]

Compound | IC50
Cc1cc(N2CCc3c(c(C)nn3CC34CCC(NC(=O)[C@@H]5COCCN5)(CC3)CC4)C2)c2cnn(C)c2n1 [Compound No. 8, (S)—N-(4-((5-(1,6-dimethyl-1H-pyrazolo[3,4-b]pyridin-4-yl)-3-methyl-4,5,6,7-tetrahydro-1H-pyrazolo[4,3-c]pyridin-1-yl)methyl)bicyclo[2.2.2]octan-1-yl)morpholine-3-carboxamide] | 166 nM

Reference: US20240376099A1, “COMPOUNDS AND COMPOSITIONS AS INHIBITORS OF ENDOSOMAL TOLL-LIKE RECEPTORS” (Novartis AG, priority 2016, published 2024)
